Results from paper PMC3285657, “Biophysical Characterization and Membrane Interaction of the Two Fusion Loops of Glycoprotein B from Herpes Simplex Type I Virus” (PLoS ONE, 2012).
Residues, ends and D or L forms follow the SMILES beside them.

B1: HB168–186 (peptide)
peptide: VTVSQVWFGHRYSQFMGIF
notes: source: synthetic peptide (solid-phase Fmoc method), purified (purity higher than 98%)

Experiments:
[1] = Thioflavin T assay for peptide aggregation; format: physicochemical; settings: for Aggregation state in the presence of DOPC/Chol LUVs (ThT fluorescence) / Aggregation state in aqueous medium (ThT fluorescence): peptide 4 µM, 100 mM NaCl, 10 mM Tris–HCl, 25 µM ThT, pH 7.4, 37°C; for Aggregation state in the presence of DOPC/Chol LUVs (ThT fluorescence): 0.1 mM phospholipid; for Aggregation state in aqueous medium (ThT fluorescence): ex 450 nm / em 482 nm; for Oligomerization in aqueous solution / Oligomerization inside / interacting with the membrane: summary in discussion
Procedure: The peptide's aggregation state in buffer and DOPC/Chol LUVs was assayed using ThT [36], in order to know the possible effects of the peptide aggregation on the membranes. As observed in Figure 4 A–B, the two peptides present a completely different behaviour.
Peptide aggregation was assayed using Thioflavin T (ThT). ThT associates rapidly with aggregated peptides giving rise to a new excitation maximum at 450 nm and an enhanced emission at 482 nm. LUVs in 100 mM NaCl, 10 mM Tris–HCl, 25 µM ThT, pH 7.4 (final phospholipid concentration of 0.1 mM) were titrated with a peptide concentration of 1, 4, 8, 12, 16, 20 µM. Fluorescence was measured before and after the desired amount of peptide was added into the cuvette using a Varian Cary Eclipse fluorescence spectrometer at 37°C. Samples were excited at 450 nm (slit width, 5 nm) and fluorescence emission was recorded at 482 nm (slit width, 5 nm). Aggregation was quantified according to the equation, %A = (Ff−F0)/(Fmax−F0)×100, where Ff is the value of fluorescence after peptide addition, F0 the initial fluorescence in the absence of peptide and Fmax is the fluorescence maximum obtained immediately after peptide addition. Kinetic data were obtained at a concentration of 4 µM.

[2] = Lipid mixing assay (NBD-PE/Rho-PE resonance energy transfer); settings: 0.1 mM lipid, 37°C
Procedure: To investigate the fusogenicity of gB peptides, NBD and Rho labelled PE were used as the donor and acceptor of fluorescence energy transfer. A population of LUVs labelled with both was mixed with a population of unlabelled LUVs and increasing amounts of peptides were added. […] The dependence of the extent of lipid mixing on the peptide to lipid molar ratio was analysed. The fusogenic capacity was monitored by measuring their ability to induce lipid mixing of model membranes composed of DOPG, DOPG/Chol (3/2), DOPC, DOPC/Chol (3/2), POPC/Chol (3/2), and POPC/Chol/SM at various ratios (4/1/1, 2/1/1, 1/1/1).
Figure 2 Ability of peptides to induce lipid mixing. Peptide-promoted membrane fusion as determined by lipid mixing; peptide aliquots were added to 0.1 mM LUVs, containing 0.6% NBD and 0.6% Rho. The increase in fluorescence was measured after the addition of peptide aliquots; reduced Triton-X-100 (0.05% v/v) was referred to as 100% of fusion. In figure is reported the dose dependence of lipid mixing at 37°C: panels A and B HB168–186 and HB254–270 in LUVs of different composition; panels C and D HB168–186 and HB254–270 in LUVs mimicking lipid rafts; panel E HB168–186, HB254–270 and shorter versions in DOPC/Chol LUVs; panel F equimolecular mixtures of peptides HB168–186 and HB254–270 in DOPC/Chol (3/2) and POPC/Chol/SM (2/1/1).
Membrane lipid mixing was monitored using the resonance energy transfer assay (RET) reported by Struck et al.. The assay is based on the dilution of the NBD-PE (donor) and Rho-PE (acceptor). Dilution due to membrane mixing results in an increase in NBD-PE fluorescence. The change in donor emission was monitored as aliquots of peptides were added to vesicles. […] The fluorescence scale was calibrated such that the zero level corresponded to the initial residual fluorescence of the labelled vesicles and the 100% value corresponding to complete mixing of all lipids in the system was set by the fluorescence intensity of vesicles upon the addition of Triton X-100 (0.05% v/v) at the same total lipid concentrations of the fusion assay. […]

[3] = Quenching of tryptophan/tyrosines by acrylamide (Stern-Volmer); format: physicochemical; settings: peptide 1 µM; for Ksv (M^−1) in buffer: absence of liposomes, F0/F = 1+Ksv [Q]; for Ksv (M^−1) in LUVs: presence of liposomes, peptide/lipid molar ratio 1/200
Source text: The observed changes in the characteristics of the tryptophan/tyrosine emission upon binding of peptides HB168–186 and HB254–270 to lipid vesicles indicate their insertion into the hydrophobic region of the bilayers. We also studied the accessibility of the tryptophan/tyrosine residues of membrane-bound peptides towards acrylamide, a neutral, water-soluble, highly efficient quenching molecule, which is unable to penetrate into the hydrophobic core of the lipid bilayer. The more deeply a tryptophan/tyrosine residue is buried, the less strongly it can be quenched by acrylamide. Stern-Volmer plots for the quenching of tryptophan by acrylamide, recorded in the absence and presence of lipid vesicles, are depicted in Figure 6. Fluorescence of tryptophan/tyrosine decreased in a concentration-dependent manner by the addition of acrylamide to the peptide solution both in the absence and presence of liposomes, without other effects on the spectra. However, we can observe a substantial difference between the two peptides.
Aliquots of a 4 M solution of the water-soluble quencher were added to the solution containing the peptide (1 µM) in the absence or presence of liposomes at a peptide/lipid molar ratio of 1/200. The maximal concentration of acrylamide is 0.2 mmol/ml. Tryptophan fluorescence was measured with an excitation wavelength of 295 nm, to reduce acrylamide absorbance (and the resulting inner filter effect), and emission at a wavelength of 340 nm, to eliminate interference from the Raman band of water and tyrosine fluorescence was measured with an excitation wavelength of 274 nm, and emission at a wavelength of 305. The data were analyzed according to the Stern-Volmer equation [68], F0/F = 1+Ksv [Q], where F0 and F represent the fluorescence intensities in the absence and the presence of the quencher (Q), respectively, and Ksv is the Stern-Volmer quenching constant, which is a measure of the accessibility of tryptophan to acrylamide. […] Accordingly, Ksv is determined by the amount of non-vesicle-associated free peptide as well as the fraction of the peptide residing at the surface of the bilayer.

[4] = target: the molecule itself; experiment: thioflavin T fluorescence (peptide aggregation)

Molecule	Aggregation state in the presence of DOPC/Chol LUVs (ThT fluorescence) [1]	Aggregation state in aqueous medium (ThT fluorescence) [1]	Oligomerization in aqueous solution [1]	Oligomerization inside / interacting with the membrane [1]	Ksv (M^−1) in buffer [3]	Ksv (M^−1) in LUVs [3]	Level of fusion (lipid mixing) in DOPC/Chol LUVs [2]	further results
CC[C@H](C)[C@H](NC(=O)CNC(=O)[C@H](CCSC)NC(=O)[C@H](Cc1ccccc1)NC(=O)[C@H](CCC(N)=O)NC(=O)[C@H](CO)NC(=O)[C@H](Cc1ccc(O)cc1)NC(=O)[C@H](CCCNC(=N)N)NC(=O)[C@H](Cc1c[nH]cn1)NC(=O)CNC(=O)[C@H](Cc1ccccc1)NC(=O)[C@H](Cc1c[nH]c2ccccc12)NC(=O)[C@@H](NC(=O)[C@H](CCC(N)=O)NC(=O)[C@H](CO)NC(=O)[C@@H](NC(=O)[C@@H](NC(=O)[C@@H](N)C(C)C)[C@@H](C)O)C(C)C)C(C)C)C(=O)N[C@@H](Cc1ccccc1)C(=O)O [HB168–186] (H-VTVSQVWFGHRYSQFMGIF-OH)	lower aggregation	already aggregated	high tendency to oligomerize	high tendency to oligomerize	8.3 ± 0.2 M⁻¹	6.4 ± 0.4 M⁻¹		Aggregation as a function of peptide concentration (ThT fluorescence) ([1]; buffer and DOPC/Chol LUVs, high concentrations (titration 1, 4, 8, 12, 16, 20 µM), 37°C): aggregated both in the aqueous medium and in LUVs; Fusogenic ability (lipid mixing) ([2]; LUVs of DOPG, DOPG/Chol, DOPC, DOPC/Chol, POPC/Chol, Triton X-100 = 100%, at least three repeats averaged): higher fusogenic ability
CC(C)[C@H](N)C(=O)N[C@@H](Cc1c[nH]c2ccccc12)C(=O)N[C@@H](Cc1ccccc1)C(=O)NCC(=O)N[C@@H](Cc1c[nH]cn1)C(=O)N[C@@H](CCCNC(=N)N)C(=O)N[C@@H](Cc1ccc(O)cc1)C(=O)O [HB173–179] (H-VWFGHRY-OH)							lower levels of fusion compared to longer sequences	
CC(C)[C@H](NC(=O)[C@H](CCCNC(=N)N)NC(=O)[C@H](CO)NC(=O)[C@@H]1CCCN1C(=O)[C@H](CC(N)=O)NC(=O)[C@@H](N)Cc1ccc(O)cc1)C(=O)N[C@@H](CCC(=O)O)C(=O)N[C@@H](C)C(=O)N[C@@H](Cc1ccccc1)C(=O)N[C@@H](Cc1c[nH]cn1)C(=O)N[C@@H](CCCNC(=N)N)C(=O)N[C@@H](Cc1ccc(O)cc1)C(=O)NCC(=O)N[C@H](C(=O)N[C@H](C(=O)N[C@H](C(=O)N[C@@H](CC(N)=O)C(=O)O)C(C)C)[C@@H](C)O)[C@@H](C)O [HB254–270] (H-YNPSRVEAFHRYGTTVN-OH)	not aggregated	not aggregated	not oligomerized	able to oligomerize	71.1 ± 1.1 M⁻¹	8.5 ± 0.1 M⁻¹		
CC(C)[C@H](NC(=O)[C@@H](N)CCCNC(=N)N)C(=O)N[C@@H](CCC(=O)O)C(=O)N[C@@H](C)C(=O)N[C@@H](Cc1ccccc1)C(=O)N[C@@H](Cc1c[nH]cn1)C(=O)N[C@@H](CCCNC(=N)N)C(=O)N[C@@H](Cc1ccc(O)cc1)C(=O)O [HB258–265] (H-RVEAFHRY-OH)							lower levels of fusion compared to longer sequences	
B1								binding result [4]: binds
